Reference: ChEMBL document CHEMBL1146891, “Preparation of 1-(3-aminobenzo[d]isoxazol-5-yl)-1H-pyrazolo[4,3-d]pyrimidin-7(6H)-ones as potent, selective, and efficacious inhibitors of coagulation factor Xa” (Bioorg Med Chem Lett, 2006)

Legend:
[1] = Volume of distribution in dog at 0.5 mg/kg, iv and 0.2 mg/kg, po; assay type: ADME, organism-based, Canis lupus familiaris; conditions: in vivo, read-out: Vdss
[2] = Half life in dog at 0.5 mg/kg, iv and 0.2 mg/kg, po; assay type: ADME, organism-based, Canis lupus familiaris; conditions: in vivo
[3] = Bioavailability in dog at 0.5 mg/kg, iv and 0.2 mg/kg, po; assay type: ADME, organism-based, Canis lupus familiaris; conditions: in vivo
[4] = Clearance in dog at 0.5 mg/kg, iv and 0.2 mg/kg, po; assay type: ADME, organism-based, Canis lupus familiaris; conditions: in vivo
[5] = Apparent permeability in Caco-2 cells; assay type: ADME, cell-based; conditions: human
Coagulation factor X [6] = target: T1, Coagulation factor X (Homo sapiens, UniProt P00742); assay: Binding affinity to human f10a
T1 sequence (P00742 41-179 limits assumed): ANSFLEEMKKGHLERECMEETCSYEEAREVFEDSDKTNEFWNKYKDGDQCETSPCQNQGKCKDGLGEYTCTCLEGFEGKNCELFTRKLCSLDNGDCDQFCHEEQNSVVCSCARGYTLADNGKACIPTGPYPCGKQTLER
T1 sequence (P00742 235-488 limits assumed): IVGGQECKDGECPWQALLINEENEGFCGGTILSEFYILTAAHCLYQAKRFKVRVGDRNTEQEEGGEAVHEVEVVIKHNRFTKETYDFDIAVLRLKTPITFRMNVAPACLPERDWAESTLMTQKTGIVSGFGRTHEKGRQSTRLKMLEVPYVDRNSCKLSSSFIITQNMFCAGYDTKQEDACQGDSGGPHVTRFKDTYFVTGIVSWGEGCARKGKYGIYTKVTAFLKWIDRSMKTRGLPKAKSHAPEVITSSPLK

Coagulation factor X [7] = target: T1, Coagulation factor X; assay: Anticoagulant activity in human plasma measured as activated partial thromboplastin time; assay type: functional, cell-free
[8] = target: T2, Coagulation factor VII/tissue factor (Homo sapiens) (UniProt P08709+P13726); assay: Anticoagulant activity in human plasma measured as prothrombin time; assay type: functional, cell-free
Homo sapiens [9] = species on record: Homo sapiens; assay: Selectivity for f10a over activated protein C
[10] = target: T2, Coagulation factor VII/tissue factor (Homo sapiens); assay: Anticoagulant activity in rabbit plasma measured as prothrombin time; assay type: functional, cell-free; conditions: Oryctolagus cuniculus, target entry is the homologue from another species
Homo sapiens [11] = species on record: Homo sapiens; assay: Selectivity for f10a over chymotrypsin
[12] = target: Coagulation factor X and plasma kallikrein (Homo sapiens) (UniProt P03952+P00742); assay: Selectivity for f10a over plasma kallikrein; assay type: cell-free
Coagulation factor X and plasma kallikrein (Homo sapiens), sequence (P00742 whole entry, looked up): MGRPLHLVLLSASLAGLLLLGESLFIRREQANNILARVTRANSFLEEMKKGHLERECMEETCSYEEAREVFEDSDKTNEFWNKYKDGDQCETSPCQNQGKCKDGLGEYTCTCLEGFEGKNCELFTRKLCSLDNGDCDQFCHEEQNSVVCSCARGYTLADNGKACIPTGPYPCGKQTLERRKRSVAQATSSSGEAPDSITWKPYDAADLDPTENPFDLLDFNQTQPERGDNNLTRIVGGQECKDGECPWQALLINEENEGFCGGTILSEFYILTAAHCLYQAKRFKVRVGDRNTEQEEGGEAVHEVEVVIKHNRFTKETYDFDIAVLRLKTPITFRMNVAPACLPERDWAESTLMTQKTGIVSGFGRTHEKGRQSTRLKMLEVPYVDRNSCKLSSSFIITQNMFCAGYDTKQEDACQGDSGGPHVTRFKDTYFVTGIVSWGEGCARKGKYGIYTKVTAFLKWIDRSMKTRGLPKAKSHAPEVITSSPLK
Coagulation factor X and plasma kallikrein (Homo sapiens), sequence (P03952 whole entry, looked up): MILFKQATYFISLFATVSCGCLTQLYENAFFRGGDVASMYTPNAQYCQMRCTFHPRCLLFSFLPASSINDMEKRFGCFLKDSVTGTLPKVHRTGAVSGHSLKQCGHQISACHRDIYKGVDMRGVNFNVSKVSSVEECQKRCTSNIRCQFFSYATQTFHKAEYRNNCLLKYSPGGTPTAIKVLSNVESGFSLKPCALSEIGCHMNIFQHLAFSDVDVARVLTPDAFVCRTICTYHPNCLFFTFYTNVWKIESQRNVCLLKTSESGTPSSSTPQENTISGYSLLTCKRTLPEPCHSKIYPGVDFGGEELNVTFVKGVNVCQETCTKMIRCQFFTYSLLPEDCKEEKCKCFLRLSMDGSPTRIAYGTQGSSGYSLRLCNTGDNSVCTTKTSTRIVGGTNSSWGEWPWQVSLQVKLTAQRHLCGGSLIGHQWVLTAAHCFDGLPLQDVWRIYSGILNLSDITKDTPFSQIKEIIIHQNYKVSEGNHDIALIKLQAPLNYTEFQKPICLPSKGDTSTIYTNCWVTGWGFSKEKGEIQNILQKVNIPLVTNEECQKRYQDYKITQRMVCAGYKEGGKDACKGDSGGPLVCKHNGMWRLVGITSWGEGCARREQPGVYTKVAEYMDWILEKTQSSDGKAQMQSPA

Homo sapiens [13] = species on record: Homo sapiens; assay: Selectivity for f10a over plasmin
[14] = target: Coagulation factor VII and X (Homo sapiens) (UniProt P00742+P08709); assay: Selectivity for f10a over f7a; assay type: protein assay
Homo sapiens [15] = species on record: Homo sapiens; assay: Selectivity for f10a over urokinase
Homo sapiens [16] = species on record: Homo sapiens; assay: Selectivity for f10a over trypsin
Homo sapiens [17] = species on record: Homo sapiens; assay: Selectivity for f10a over tPA
[18] = target: Thrombin and coagulation factor X (Homo sapiens) (UniProt P00734+P00742); assay: Selectivity for f10a over thrombin; assay type: protein assay
Thrombin and coagulation factor X (Homo sapiens), sequence (P00742 whole entry, looked up, other chains not shown): as the sequence (P00742 whole entry, looked up) above

Plasminogen = Plasminogen (Homo sapiens, UniProt P00747); assay: Binding affinity to human plasmin
Plasminogen, sequence (P00747 97-580 limits assumed): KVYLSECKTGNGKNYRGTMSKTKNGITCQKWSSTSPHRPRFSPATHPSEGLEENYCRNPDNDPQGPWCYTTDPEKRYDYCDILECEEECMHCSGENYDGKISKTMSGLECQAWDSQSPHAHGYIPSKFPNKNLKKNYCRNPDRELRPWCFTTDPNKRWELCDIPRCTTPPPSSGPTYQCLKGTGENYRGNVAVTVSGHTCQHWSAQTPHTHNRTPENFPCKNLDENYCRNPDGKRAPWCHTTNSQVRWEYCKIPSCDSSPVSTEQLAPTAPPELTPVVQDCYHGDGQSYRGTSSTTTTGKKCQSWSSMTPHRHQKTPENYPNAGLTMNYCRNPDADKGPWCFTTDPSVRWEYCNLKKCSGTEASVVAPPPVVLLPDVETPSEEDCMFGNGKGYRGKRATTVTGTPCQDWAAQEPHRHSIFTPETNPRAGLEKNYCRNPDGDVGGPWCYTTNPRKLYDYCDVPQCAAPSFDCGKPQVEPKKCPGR
Plasminogen, sequence (P00747 581-810 limits assumed): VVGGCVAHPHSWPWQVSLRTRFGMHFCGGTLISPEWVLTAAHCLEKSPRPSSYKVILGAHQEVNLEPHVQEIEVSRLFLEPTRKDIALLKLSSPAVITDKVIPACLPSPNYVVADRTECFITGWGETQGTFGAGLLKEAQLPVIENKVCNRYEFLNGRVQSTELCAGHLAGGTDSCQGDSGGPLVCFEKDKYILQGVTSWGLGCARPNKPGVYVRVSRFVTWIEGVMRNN

Chymotrypsinogen B = Chymotrypsinogen B (Homo sapiens, UniProt P17538); assay: Binding affinity to human chymotrypsin
Chymotrypsinogen B, sequence (P17538 34-164 limits assumed, other chains not shown): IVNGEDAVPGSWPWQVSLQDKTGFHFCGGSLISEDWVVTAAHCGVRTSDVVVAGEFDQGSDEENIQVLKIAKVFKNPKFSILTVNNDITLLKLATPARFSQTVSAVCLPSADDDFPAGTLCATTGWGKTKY
Chymotrypsinogen B, sequence (P17538 167-263 limits assumed, other chains not shown): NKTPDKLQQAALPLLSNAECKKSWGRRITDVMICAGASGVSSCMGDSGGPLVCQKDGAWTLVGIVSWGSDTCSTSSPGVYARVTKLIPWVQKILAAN

Coagulation factor IX = Coagulation factor IX (Homo sapiens, UniProt P00740); assay: Binding affinity to human f9a
Coagulation factor IX, sequence (P00740 47-191 limits assumed): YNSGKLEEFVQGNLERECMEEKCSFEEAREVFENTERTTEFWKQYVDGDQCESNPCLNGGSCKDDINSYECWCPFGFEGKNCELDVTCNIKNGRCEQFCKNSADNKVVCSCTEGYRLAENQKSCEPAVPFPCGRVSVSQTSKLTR
Coagulation factor IX, sequence (P00740 227-461 limits assumed): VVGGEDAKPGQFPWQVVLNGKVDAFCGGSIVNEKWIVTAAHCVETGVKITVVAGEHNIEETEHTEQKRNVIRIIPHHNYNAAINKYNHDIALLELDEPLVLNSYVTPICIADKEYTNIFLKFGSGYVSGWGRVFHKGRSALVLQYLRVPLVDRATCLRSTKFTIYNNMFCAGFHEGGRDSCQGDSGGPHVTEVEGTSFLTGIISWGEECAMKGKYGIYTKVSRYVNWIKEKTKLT

[19] = target: Tissue-type plasminogen activator (Homo sapiens, UniProt P00750); assay: Binding affinity to human tPA
Tissue-type plasminogen activator, sequence (P00750 whole entry): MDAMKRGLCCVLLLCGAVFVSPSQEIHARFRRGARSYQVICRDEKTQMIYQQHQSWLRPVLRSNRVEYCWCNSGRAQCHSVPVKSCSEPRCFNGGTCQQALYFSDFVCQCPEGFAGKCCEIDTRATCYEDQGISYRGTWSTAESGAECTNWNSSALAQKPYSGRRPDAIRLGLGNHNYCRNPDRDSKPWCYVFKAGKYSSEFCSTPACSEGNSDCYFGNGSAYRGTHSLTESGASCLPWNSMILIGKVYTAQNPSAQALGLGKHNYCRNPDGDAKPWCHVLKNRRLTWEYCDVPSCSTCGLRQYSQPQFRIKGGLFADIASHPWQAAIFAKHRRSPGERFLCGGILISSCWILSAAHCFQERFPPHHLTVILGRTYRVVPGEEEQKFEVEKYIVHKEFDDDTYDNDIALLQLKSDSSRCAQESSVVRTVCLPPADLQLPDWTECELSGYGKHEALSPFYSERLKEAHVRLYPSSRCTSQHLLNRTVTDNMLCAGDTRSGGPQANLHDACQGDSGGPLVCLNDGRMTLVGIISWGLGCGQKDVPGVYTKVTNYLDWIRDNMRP

Prothrombin = Prothrombin (Homo sapiens, UniProt P00734); assay: Binding affinity to human thrombin
[20] = target: Urokinase-type plasminogen activator (Homo sapiens, UniProt P00749); assay: Binding affinity to human urokinase
Coagulation factor X [21] = target: T3, Coagulation factor X (Oryctolagus cuniculus, UniProt O19045); assay: Binding affinity to rabbit f10a
T3 sequence (O19045 whole entry): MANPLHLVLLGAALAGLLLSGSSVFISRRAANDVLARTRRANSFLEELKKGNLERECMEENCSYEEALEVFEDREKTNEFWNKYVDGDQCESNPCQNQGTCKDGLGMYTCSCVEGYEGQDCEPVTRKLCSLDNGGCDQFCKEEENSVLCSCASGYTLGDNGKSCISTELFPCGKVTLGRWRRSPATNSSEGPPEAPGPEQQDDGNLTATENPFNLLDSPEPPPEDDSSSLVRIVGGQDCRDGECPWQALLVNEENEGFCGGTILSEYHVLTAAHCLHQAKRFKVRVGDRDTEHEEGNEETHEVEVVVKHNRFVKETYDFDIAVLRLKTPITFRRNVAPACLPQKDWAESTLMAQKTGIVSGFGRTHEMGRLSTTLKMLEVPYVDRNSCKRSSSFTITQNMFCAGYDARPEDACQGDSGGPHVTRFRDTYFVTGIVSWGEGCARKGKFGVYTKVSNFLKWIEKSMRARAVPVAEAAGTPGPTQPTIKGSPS

Trypsin = Trypsin (Homo sapiens, UniProt P07477+P07478+P35030); assay: Binding affinity to human trypsin; assay type: protein assay
[22] = Protein binding in rabbit plasma; assay type: ADME, organism-based, Oryctolagus cuniculus; conditions: read-out: PPB (converted)
Oryctolagus cuniculus = assay: Inhibition of thrombus formation in iv dosed rabbit arterio-venous shunt model; assay type: functional, organism-based
[23] = target: Vitamin K-dependent protein C (Homo sapiens, UniProt P04070); assay: Binding affinity to human activated protein C
Vitamin K-dependent protein C, sequence (P04070 43-197 limits assumed): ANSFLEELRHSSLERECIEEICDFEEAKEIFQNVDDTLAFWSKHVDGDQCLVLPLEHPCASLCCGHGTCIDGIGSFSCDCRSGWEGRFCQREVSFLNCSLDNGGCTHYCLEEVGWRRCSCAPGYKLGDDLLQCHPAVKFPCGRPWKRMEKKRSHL
Vitamin K-dependent protein C, sequence (P04070 212-461 limits assumed): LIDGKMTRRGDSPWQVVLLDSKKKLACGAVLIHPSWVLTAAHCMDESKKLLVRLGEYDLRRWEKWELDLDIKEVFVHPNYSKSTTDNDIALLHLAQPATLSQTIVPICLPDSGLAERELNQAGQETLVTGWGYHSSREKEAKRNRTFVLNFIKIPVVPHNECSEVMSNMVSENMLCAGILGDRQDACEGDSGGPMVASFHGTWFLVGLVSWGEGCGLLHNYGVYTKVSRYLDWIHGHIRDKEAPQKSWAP

SMILES: Cc1nn(-c2ccc3onc(N)c3c2)c2c(=O)n(-c3ccc(-c4ccccc4CN(C)C)cc3)cnc12.O=C(O)C(F)(F)F
- Vd [1]: 9.5 L/kg
- half-life [2]: 2.5 h
- bioavailability [3]: 2%
- clearance [4]: 55 mL/min/kg
- Papp [5]: 11 ×10⁻⁶ cm/s

SMILES: Cc1nc2c(C(F)(F)F)nn(-c3ccc4onc(N)c4c3)c2c(=O)n1-c1ccc(-c2ccccc2CNCC2CC2)cc1
- Ki (Coagulation factor X [6]): 0.5 nM
- 2aPTT (Coagulation factor X [7]): 18.6 µM
- 2PT [8]: 10.9 µM

SMILES: Cc1nn(-c2ccc3onc(N)c3c2)c2c(=O)n(-c3ccc(-c4ccccc4CN(C)C)cc3)c(C)nc12
- Ratio Ki (Homo sapiens [9]): > 1000
- 2PT [10]: 1.8 µM
- Ratio Ki (Homo sapiens [11]): > 1000
- Ratio Ki [12]: > 1000
- Ratio Ki (Homo sapiens [13]): > 1000
- Ratio Ki [14]: > 1000
- Ratio Ki (Homo sapiens [15]): > 1000
- 2aPTT (Coagulation factor X [7]): 1.7 µM
- Ratio Ki (Homo sapiens [16]): > 1000
- Ratio Ki (Homo sapiens [17]): > 1000
- 2PT [8]: 1.4 µM
- Ratio Ki [18]: > 500

SMILES: Cc1nn(-c2ccc3onc(N)c3c2)c2c(=O)n(-c3ccc(-c4ccccc4CN4CC[C@@H](O)C4)cc3)c(C)nc12 [listing 1 of 2 here]
- Ratio Ki (Homo sapiens [9]): > 1000
- 2PT [10]: 3.4 µM
- Ratio Ki (Homo sapiens [11]): > 1000
- Ratio Ki [12]: > 1000
- Ratio Ki (Homo sapiens [13]): > 1000
- Ratio Ki [14]: > 1000
- Ratio Ki (Homo sapiens [15]): > 1000
- 2aPTT (Coagulation factor X [7]): 5.8 µM
- Ratio Ki (Homo sapiens [16]): > 1000
- Ratio Ki (Homo sapiens [17]): > 1000
- 2PT [8]: 2.5 µM
- Ratio Ki [18]: > 500

SMILES: Cc1nn(-c2ccc3onc(N)c3c2)c2c(=O)n(-c3ccc(-c4ccccc4CNC(C)C)cc3)cnc12
- Ki (Coagulation factor X [6]): 1.5 nM
- 2aPTT (Coagulation factor X [7]): 3 µM
- 2PT [8]: 1.9 µM

SMILES: Nc1noc2ccc(-n3nc(C(F)(F)F)c4[nH]c(=O)n(-c5ccc(-c6ccccc6CN6CC[C@@H](O)C6)cc5)c(=O)c43)cc12
- Ki (Coagulation factor X [6]): 0.11 nM
- 2aPTT (Coagulation factor X [7]): 74.5 µM
- 2PT [8]: 24.1 µM

SMILES: Cc1nc2c(C(F)(F)F)nn(-c3ccc4onc(N)c4c3)c2c(=O)n1-c1ccc(-c2ccccc2CN2CC[C@@H](O)C2)cc1.O=C(O)C(F)(F)F
- Vd [1]: 6.6 L/kg
- half-life [2]: 8.4 h
- bioavailability [3]: 58%
- clearance [4]: 10 mL/min/kg

SMILES: CN(C)Cc1nccn1-c1ccc(-n2c(=O)[nH]c3c(C(F)(F)F)nn(-c4ccc5onc(N)c5c4)c3c2=O)c(F)c1
- Ki (Coagulation factor X [6]): 0.35 nM
- 2aPTT (Coagulation factor X [7]): 37.8 µM
- 2PT [8]: 14.9 µM

SMILES: Cc1nn(-c2ccc3onc(N)c3c2)c2c(=O)n(-c3ccc(-c4ccccc4CN4CC[C@@H](O)C4)cc3)c(C)nc12.O=C(O)C(F)(F)F
- Vd [1]: 6.6 L/kg
- half-life [2]: 3.8 h
- bioavailability [3]: 48%
- clearance [4]: 20 mL/min/kg
- Papp [5]: 4.7 ×10⁻⁶ cm/s

SMILES: Cc1nn(-c2ccc3onc(N)c3c2)c2c(=O)n(-c3ccc(-c4ccccc4CN4CCCC4)cc3)cnc12
- Ki (Coagulation factor X [6]): 1.3 nM
- 2aPTT (Coagulation factor X [7]): 1.6 µM
- 2PT [8]: 1.1 µM

SMILES: Cc1nn(-c2ccc3onc(N)c3c2)c2c(=O)n(-c3ccc(-c4ccccc4CN4CC[C@@H](O)C4)cc3)c(C)nc12 [listing 2 of 2 here]
- Ki (Plasminogen): > 15000 nM
- Ki (Chymotrypsinogen B): 580 nM
- Ki (Coagulation factor IX): > 41000 nM
- Ki (Coagulation factor X [6]): 0.37 nM
- Ki [19]: > 33000 nM
- Ki (Prothrombin): 245 nM
- Ki [20]: > 13000 nM
- Ki (Coagulation factor X [21]): 0.59 nM
- Ki (Trypsin): > 4200 nM
- fraction unbound [22]: 0.09
- ID50 (Oryctolagus cuniculus): 2.4 µmol/kg/h
- Ki [23]: > 76000 nM

SMILES: Nc1noc2ccc(-n3nc(C(F)(F)F)c4c3C(=O)N(c3ccc(-c5ccccc5CN5CC[C@@H](O)C5)cc3)CN4)cc12
- Ki (Plasminogen): > 15000 nM
- Ki (Chymotrypsinogen B): 3240 nM
- Ki (Coagulation factor IX): > 41000 nM
- Ki (Coagulation factor X [6]): 0.21 nM
- Ki [19]: > 33000 nM
- Ki (Prothrombin): 130 nM
- Ki [20]: > 13000 nM
- Ki (Trypsin): > 4200 nM
- Ki [23]: > 20000 nM

SMILES: Cc1nn(-c2ccc3onc(N)c3c2)c2c(=O)n(-c3ccc(-c4ccccc4CN(C)C(C)C)cc3)c(C)nc12
- Ki (Coagulation factor X [6]): 0.35 nM
- 2aPTT (Coagulation factor X [7]): 2 µM
- 2PT [8]: 4 µM

SMILES: Nc1nc2c(C(F)(F)F)nn(-c3ccc4onc(N)c4c3)c2c(O)c1-c1ccc(-c2ccccc2CN2CCC(O)CC2)cc1
- Ki (Coagulation factor X [6]): 0.77 nM
- 2aPTT (Coagulation factor X [7]): 638 µM
- 2PT [8]: 230 µM

SMILES: CN(C)Cc1ccccc1-c1ccc(N2CNc3c(C(F)(F)F)nn(-c4ccc5onc(N)c5c4)c3C2=O)cc1
- 2aPTT (Coagulation factor X [7]): 1.7 µM

SMILES: Cc1nn(-c2ccc3onc(N)c3c2)c2c(=O)n(-c3ccc(-c4ccccc4CN(C)C)cc3)c(C)nc12.O=C(O)C(F)(F)F
- Vd [1]: 8.9 L/kg
- half-life [2]: 4.2 h
- bioavailability [3]: 23%
- clearance [4]: 28.3 mL/min/kg
- Papp [5]: 6.1 ×10⁻⁶ cm/s
